Earlier results in US20240374879A1, “METHODS AND COMPOSITIONS TO REDUCE CELLULAR DEPOSITION, AND HYDROCEPHALUS SHUNT FAILURE” (Wayne State University, priority 2021, published 2024).

Biological target: T1, TLR-4 (Mus musculus, UniProt Q9QUK6)
T1 sequence (Q9QUK6 26-835): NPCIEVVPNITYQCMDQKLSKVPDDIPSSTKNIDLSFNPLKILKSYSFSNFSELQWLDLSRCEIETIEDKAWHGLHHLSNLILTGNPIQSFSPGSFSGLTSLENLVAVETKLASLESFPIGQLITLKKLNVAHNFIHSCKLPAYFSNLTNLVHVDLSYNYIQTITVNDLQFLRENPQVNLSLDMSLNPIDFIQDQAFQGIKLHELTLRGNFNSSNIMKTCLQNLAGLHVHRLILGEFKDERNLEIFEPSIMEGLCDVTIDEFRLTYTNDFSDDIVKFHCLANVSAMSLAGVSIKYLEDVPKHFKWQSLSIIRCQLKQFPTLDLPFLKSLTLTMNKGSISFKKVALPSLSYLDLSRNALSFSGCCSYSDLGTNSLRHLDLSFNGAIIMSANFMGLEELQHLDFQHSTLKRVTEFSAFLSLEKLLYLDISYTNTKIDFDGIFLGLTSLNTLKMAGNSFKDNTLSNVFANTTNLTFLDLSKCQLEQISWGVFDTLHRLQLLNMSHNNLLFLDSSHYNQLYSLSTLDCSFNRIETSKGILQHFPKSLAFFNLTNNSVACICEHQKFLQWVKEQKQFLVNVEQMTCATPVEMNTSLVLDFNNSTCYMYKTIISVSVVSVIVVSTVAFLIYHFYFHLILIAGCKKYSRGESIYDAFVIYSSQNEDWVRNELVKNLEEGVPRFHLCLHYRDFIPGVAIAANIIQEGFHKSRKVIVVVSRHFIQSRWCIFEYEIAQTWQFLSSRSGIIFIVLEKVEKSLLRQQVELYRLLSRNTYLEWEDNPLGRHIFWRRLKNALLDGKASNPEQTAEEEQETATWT
Settings: 50 mg/kg; four hours post-treatment; cited from earlier work

O=C(O)CC1CC(c2ccccc2)=NO1 (stereo not shown) [GIT 27, 4,5-Dihydro-3-phenyl-5-isoxazoleacetic acid]
edema: significantly reduced
